Experimental data from ChEMBL document CHEMBL4251606, “Design and characterization of α-lipoic acyl shikonin ester twin drugs as tubulin and PDK1 dual inhibitors” (Eur J Med Chem, 2018).
pIC50: −log10 of the molar value. Activity calls are given as the source filed them. The rule behind the calls is not given here.

What was measured:
MDA-MB-231 = assay: Antiproliferative activity against human MDA231 cells after 24 hrs by MTT assay; type: functional, cell-based; details: MDA-MB-231, 24 h
HeLa [1] = assay: Antiproliferative activity against human HeLa cells after 24 hrs by MTT assay; type: functional, cell-based
L02 = assay: Antiproliferative activity against human LO2 cells after 24 hrs by MTT assay; type: cell-based; details: L02, 24 h
HEK-293T = assay: Antiproliferative activity against human 293T cells after 24 hrs by MTT assay; type: cell-based
HeLa [2] = assay: Cell cycle arrest in human HeLa cells assessed as accumulation of cells at G1 phase at 2 uM after 24 hrs by propidium iodide staining-based FACScan flow cytometric analysis (reference value: 62.92%); type: functional
HeLa [3] = assay: Cell cycle arrest in human HeLa cells assessed as accumulation of cells at S phase at 4 uM after 24 hrs by propidium iodide staining-based FACScan flow cytometric analysis (reference value: 20.16%); type: functional
HeLa [4] = assay: Cell cycle arrest in human HeLa cells assessed as accumulation of cells at S phase at 8 uM after 24 hrs by propidium iodide staining-based FACScan flow cytometric analysis (reference value: 20.16%); type: functional
[5] = molecular target: [Pyruvate dehydrogenase (acetyl-transferring)] kinase isozyme 1, mitochondrial (Homo sapiens) (UniProt Q15118); assay: Inhibition of PDK1 in human HeLa cells assessed as decrease in PDH-E1 alpha p-ser300 expression up to 8 uM by Western blot analysis; type: cell-based
HeLa [6] = assay: Induction of apoptosis in human HeLa cells assessed as viable cells at 1 uM after 24 hrs by Annexin V-APC/propidium iodide staining-based FACScan flow cytometric analysis (reference value: 85.1%); type: functional; details: read-out: Activity
HeLa [7] = assay: Induction of apoptosis in human HeLa cells assessed as early apoptotic cells at 1 uM after 24 hrs by Annexin V-APC/propidium iodide staining-based FACScan flow cytometric analysis (reference value: 6.46%); type: functional
HeLa [8] = assay: Induction of apoptosis in human HeLa cells assessed as early apoptotic cells at 2 uM after 24 hrs by Annexin V-APC/propidium iodide staining-based FACScan flow cytometric analysis (reference value: 6.46%); type: functional
HeLa [9] = assay: Induction of apoptosis in human HeLa cells assessed as necrotic cells at 2 uM after 24 hrs by Annexin V-APC/propidium iodide staining-based FACScan flow cytometric analysis (reference value: 1.18%); type: functional
HeLa [10] = assay: Induction of apoptosis in human HeLa cells assessed as viable cells at 4 uM after 24 hrs by Annexin V-APC/propidium iodide staining-based FACScan flow cytometric analysis (reference value: 85.1%); type: functional; details: read-out: Activity
HeLa [11] = assay: Induction of apoptosis in human HeLa cells assessed as late apoptotic cells at 4 uM after 24 hrs by Annexin V-APC/propidium iodide staining-based FACScan flow cytometric analysis (reference value: 7.22%); type: functional
HeLa [12] = assay: Induction of apoptosis in human HeLa cells assessed as late apoptotic cells at 6 uM after 12 hrs by Annexin V-APC/propidium iodide staining-based FACScan flow cytometric analysis (reference value: 3.84%); type: functional
HeLa [13] = assay: Induction of apoptosis in human HeLa cells assessed as early apoptotic cells at 6 uM after 24 hrs by Annexin V-APC/propidium iodide staining-based FACScan flow cytometric analysis (reference value: 2.45%); type: functional
HeLa [14] = assay: Induction of apoptosis in human HeLa cells assessed as late apoptotic cells at 6 uM after 24 hrs by Annexin V-APC/propidium iodide staining-based FACScan flow cytometric analysis (reference value: 3.84%); type: functional
HeLa [15] = assay: Induction of apoptosis in human HeLa cells assessed as necrotic cells at 6 uM after 24 hrs by Annexin V-APC/propidium iodide staining-based FACScan flow cytometric analysis (reference value: 0.725%); type: functional
HeLa [16] = assay: Induction of apoptosis in human HeLa cells assessed as early apoptotic cells at 6 uM after 36 hrs by Annexin V-APC/propidium iodide staining-based FACScan flow cytometric analysis (reference value: 2.45%); type: functional
HeLa [17] = assay: Induction of apoptosis in human HeLa cells assessed as late apoptotic cells at 6 uM after 36 hrs by Annexin V-APC/propidium iodide staining-based FACScan flow cytometric analysis (reference value: 3.84%); type: functional
HeLa [18] = assay: Induction of apoptosis in human HeLa cells assessed as decrease in Bcl2 expression up to 8 uM after 24 hrs by Western blot analysis; type: functional, cell-based
HeLa [19] = assay: Induction of apoptosis in human HeLa cells assessed as increase in caspase-3 cleavage up to 8 uM after 24 hrs by Western blot analysis; type: functional, cell-based
HeLa [20] = assay: Induction of apoptosis in human HeLa cells assessed as increase in Bax expression up to 8 uM after 24 hrs by Western blot analysis; type: functional, cell-based
HeLa [21] = assay: Induction of mitochondrial membrane potential loss in human HeLa cells assessed as cells with high membrane potential at 2 uM after 12 hrs by JC-1 staining-based flow cytometric analysis (reference value: 85.8%); type: functional
HeLa [22] = assay: Induction of mitochondrial membrane potential loss in human HeLa cells assessed as cells with high membrane potential at 4 uM after 12 hrs by JC-1 staining-based flow cytometric analysis (reference value: 85.8%); type: functional
HeLa [23] = assay: Induction of mitochondrial membrane potential loss in human HeLa cells assessed as cells with low membrane potential at 4 uM after 12 hrs by JC-1 staining-based flow cytometric analysis (reference value: 9.31%); type: functional
HeLa [24] = assay: Induction of apoptosis in human HeLa cells assessed as late apoptotic cells by measuring FL3-H+ cells at 2 uM after 12 hrs by propidium iodide staining-based flow cytometric analysis (reference value: 3.66%); type: functional
HeLa [25] = assay: Induction of apoptosis in human HeLa cells assessed as late apoptotic cells by measuring FL3-H+ cells at 4 uM after 12 hrs by propidium iodide staining-based flow cytometric analysis (reference value: 3.66%); type: functional
HeLa [26] = assay: Antitumor activity against human HeLa cells xenografted in nude mouse assessed as reduction in tumor volume administered intraperitomeally once in every 2 days for 15 days; type: functional
Mus musculus = assay: Toxicity in nude mouse xenografted with human HeLa cells assessed as loss in body weight at 0.5 to 2 mg/kg, ip administered once in every 2 days for 15 days; type: organism-based; details: in vivo
HeLa [27] = assay: Induction of apoptosis in human HeLa cells assessed as late apoptotic cells by measuring FL3-H+ cells at 1.4 uM after 24 hrs by propidium iodide staining-based FACScan flow cytometric analysis (reference value: 2.14%); type: functional
HeLa [28] = assay: Induction of apoptosis in human HeLa cells assessed as late apoptotic cells by measuring FL3-H+ cells at 5.6 uM after 24 hrs by propidium iodide staining-based FACScan flow cytometric analysis (reference value: 2.14%); type: functional
[29] = molecular target: [Pyruvate dehydrogenase (acetyl-transferring)] kinase isozyme 1, mitochondrial (Homo sapiens) (UniProt Q15118); assay: Inhibition of PDK1 in human HeLa cells assessed as decrease in PDH-E1 alpha p-ser300 expression at 6 uM by Western blot analysis; type: cell-based
[30] = molecular target: [Pyruvate dehydrogenase (acetyl-transferring)] kinase isozyme 1, mitochondrial (Homo sapiens) (UniProt Q15118); assay: Inhibition of PDK1 in human HeLa cells assessed as decrease in PDH-E1 alpha p-ser232 expression at 6 uM by Western blot analysis; type: cell-based
HeLa [31] = assay: Reduction in glucose consumption in human HeLa cells at 2 to 8 uM; type: functional, cell-based
HeLa [32] = assay: Reduction in lactate production in human HeLa cells at 2 to 8 uM; type: functional, cell-based

CC(C)=CC[C@@H](OC(=O)CCCC[C@@H]1CCSC(c2ccccc2)S1)C1=CC(=O)c2c(O)ccc(O)c2C1=O (stereo partly specified)
pIC50 (MDA-MB-231): 4.75 | pIC50 (HeLa [1]): 5.50 | pIC50 (L02): 3.93 | pIC50 (HEK-293T): 4.05 | Activity (HeLa [2]): 50.96% | Activity (HeLa [3]): 29.06% | Activity (HeLa [4]): 32.14% | inhibition [5]: Active | viability at 1 µM (HeLa [6]): 37% | Activity (HeLa [7]): 15.8% | Activity (HeLa [8]): 15.5% | Activity (HeLa [9]): 11.9% | viability at 4 µM (HeLa [10]): 18.1% | Activity (HeLa [11]): 58.4% | Activity (HeLa [12]): 29.9% | Activity (HeLa [13]): 26.1% | Activity (HeLa [14]): 34.8% | Activity (HeLa [15]): 10% | Activity (HeLa [16]): 45.7% | Activity (HeLa [17]): 22.9% | Activity (HeLa [18]): Active | Activity (HeLa [19]): Active | Activity (HeLa [20]): Active | Activity (HeLa [21]): 42.1% | Activity (HeLa [22]): 10.3% | Activity (HeLa [23]): 82.2% | Activity (HeLa [24]): 3.9% | Activity (HeLa [25]): 4.74% | Activity (HeLa [26]): Dose-dependent effect | Activity (Mus musculus): Non-Toxic | Activity (HeLa [27]): 30.1% | Activity (HeLa [28]): 85.2% | inhibition [29]: Active | inhibition [30]: Active | Activity (HeLa [31]): Active | Activity (HeLa [32]): Active
